Patent US4565805A, “Pharmaceutical preparation for the treatment of peptic ulcer” (priority 1984, dated 1986)
Like-named read-outs stand apart in the source and are kept apart here.

Legend:
[1] = test system: patients suffering from duodenal peptic ulcer
Experimental: The preparation was tested in clinic on 40 patients suffering from duodenal peptic ulcer. The control groups consisted of 20 patients treated with cymethidin in the daily dose of 800 mg. Only male patients were subjected to the treatment, their age varied from 22 to 56 years. The duration of the disease was different: from newly detected ulcer to 28 years of the disease. The diagnosis of the peptic ulcer was made on the basis of generally accepted clinical tests with an obligatory use of the gastroduodenoscopy. The gastroduodenoscopy was carried out prior to administration of the preparation and 14, 21 and 28 days thereafter (the two latter endoscopy were carried out only in the use of non-scarring ulcers).
The preparation was administered intramuscularly in a dose of 10-15 μg/kg in a 0.9% aqueous solution of sodium chloride twice a day (in the moring at 7 a.m. and in the evening at 19 p.m.). The treatment course was 14-28 days, the course dose of the preparation was 30-60 mg. Apart from the preparation, the patients were given no additional pharmaceuticals, antacids were also excluded.

[2] = test system: experimental duodenal ulcers (cystamine) in rats; settings: preparation 12 μg/kg twice a day, cymethidin 7 mg/kg a day
Experimental: 170 rats were used. […] The animals of the control group were injected with a physiological solution. The slaughter of the animals was effected in groups of 10 animals within different periods after the beginning of the experiment.

**Q.** For CN/C(=N\CCSCc1nc[nH]c1C)NC#N [cymethidin], which “patients with pains still noted” value ([1]; by the end of the 2-nd week, cymethidin 800 mg daily) is on record?
**A.** The value was 35%.

**Q.** And the “patients with healed ulcer” value ([1]; by the end of the 3-rd week, preparation 10-15 μg/kg i.m. twice a day, cymethidin 200 mg 4 times a day)?
**A.** Its value is 65%.

**Q.** And the ulcer index ([2]; 24 hrs, control 3.1)?
**A.** The ulcer index was 1.6.

**Q.** What about the ulcer index ([2]; 48 hrs, control 3.3) of the same compound?
**A.** The ulcer index was 1.6.

**Q.** And the ulcer index ([2]; 72 hrs, control 3.2)?
**A.** The ulcer index was 1.5.

**Q.** What about the ulcer index ([2]; 7 ds, control 1.8) of the same compound?
**A.** The ulcer index was 0.8.

**Q.** And the ulcer index ([2]; 14 ds, control 1.2)?
**A.** The ulcer index was 0.

**Q.** And the “time of complete healing of ulcers” value [2]?
**A.** The value was “by the end of the second week”.
